Measurements reported in PubChem BioAssay AID2696 (Johns Hopkins Ion Channel Center, 2010).

What follows are compounds tested against Short transient receptor potential channel 6 (Mus musculus) (UniProt Q61143) (assay: TRPC6 inhibitor potency, dose response, cell-based, mouse TRPC6, HEK293, membrane potential (AID 2696)). Conditions: TRPC6-expressing HEK293 cells, membrane potential dye fluorescence, acetylcholine-stimulated.
Chain of Short transient receptor potential channel 6 (Mus musculus) (Q61143 whole entry, looked up): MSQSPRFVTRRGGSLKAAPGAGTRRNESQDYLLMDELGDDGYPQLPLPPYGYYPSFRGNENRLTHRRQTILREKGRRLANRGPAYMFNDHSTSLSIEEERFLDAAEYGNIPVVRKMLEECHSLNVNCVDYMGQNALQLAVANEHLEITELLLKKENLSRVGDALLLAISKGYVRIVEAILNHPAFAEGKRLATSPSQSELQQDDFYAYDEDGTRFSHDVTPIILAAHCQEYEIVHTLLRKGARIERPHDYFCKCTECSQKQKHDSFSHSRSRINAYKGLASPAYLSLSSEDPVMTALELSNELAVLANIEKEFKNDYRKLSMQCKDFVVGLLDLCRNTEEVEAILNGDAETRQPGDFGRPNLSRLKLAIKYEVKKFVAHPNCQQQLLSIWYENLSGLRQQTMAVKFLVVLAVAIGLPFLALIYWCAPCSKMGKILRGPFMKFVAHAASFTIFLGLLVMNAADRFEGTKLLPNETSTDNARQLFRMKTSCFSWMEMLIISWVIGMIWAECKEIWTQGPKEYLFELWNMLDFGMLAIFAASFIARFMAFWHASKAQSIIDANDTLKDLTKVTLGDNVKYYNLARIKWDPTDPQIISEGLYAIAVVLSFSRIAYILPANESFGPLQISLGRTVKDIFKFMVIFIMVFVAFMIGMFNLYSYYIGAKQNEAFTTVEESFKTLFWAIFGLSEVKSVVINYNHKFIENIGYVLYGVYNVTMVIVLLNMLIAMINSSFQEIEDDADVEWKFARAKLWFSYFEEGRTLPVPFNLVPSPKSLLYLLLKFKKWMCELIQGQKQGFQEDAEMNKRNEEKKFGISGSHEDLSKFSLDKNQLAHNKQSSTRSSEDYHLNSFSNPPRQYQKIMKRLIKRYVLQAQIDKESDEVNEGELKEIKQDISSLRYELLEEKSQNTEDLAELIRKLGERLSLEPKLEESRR

Row | SMILES | IC50
1 | C[n+]1ccccc1/C=C/c1ccc(F)c(F)c1 | 44.7 µM
2 | CCCCCOc1ccc(CSC(=N)N)cc1[N+](=O)[O-] | 79.4 µM
3 | Cc1cccn2c(=O)c3cc(C(=O)NC(C)C)c(=N)n(Cc4ccncc4)c3nc12 | 70.8 µM
4 | CCOCCCNC(=S)N1CCCN(c2nc3cc(C)ccc3cc2C#N)CC1 | 44.7 µM
5 | Cc1cc(N2CCN(C)CC2)ccc1NC(=O)c1ccc(-c2ccc(Cl)cc2)o1 | 44.7 µM
6 | O=C(CCCOc1ccc(Cl)cc1Cl)N1CCN(c2ccccn2)CC1 | 63.1 µM
7 | COc1ccccc1Nc1nc(N)nc(CSC(=S)N2CCCCC2C)n1 (configuration not stated) | 44.7 µM
8 | COC(=O)c1ccc(NC(=O)N2CCCC(C(=O)c3ccccc3OC)C2)cc1 (configuration not stated) | 79.4 µM
9 | CCSc1ccc2cc(OC)ccc2[n+]1CC | 50.1 µM
10 | Cc1ccc(-c2cc(-c3ccc(C)cc3)[n+](-c3ccccc3)c(-c3ccc(C)cc3)c2)cc1 | 50.1 µM
11 | CN1CCCC1CCNc1ccc2c(=O)c3ccccc3oc2c1 (configuration not stated) | 63.1 µM
12 | Cc1ccc(C[n+]2c(-c3ccc(C)cc3)cc(-c3ccc(C)cc3)cc2-c2ccc(C)cc2)cc1 | 79.4 µM
13 | COc1cc2c(cc1O)CC[n+]1cc3c(OC)c(OC)ccc3cc1-2 | 50.1 µM
14 | Cc1cc(N(CCO)CCO)ccc1N=Nc1cc(F)ccc1F | 50.1 µM
15 | c1ccc(CNc2c3ccccc3nc3ccccc23)cc1 | 70.8 µM
16 | Brc1ccc(-c2c[n+]3c(n2-c2ccccc2)SCC3)cc1 | 50.1 µM
17 | Fc1ccc([C@@H]2CCNC[C@H]2COc2ccc3c(c2)OCO3)cc1 | 44.7 µM
18 | COc1ccc(-c2cc(=Nc3ccc(C)cc3)c3ccccc3o2)cc1 | 44.7 µM
19 | CC(Cc1ccccc1Sc1ccccc1O)N(C)C (configuration not stated) | 39.8 µM
20 | O=C(NCC(=O)N(c1ccc2c(c1)OCCO2)C(C(=O)NC1CCCC1)c1ccco1)c1ccco1 (configuration not stated) | 44.7 µM
21 | C[N+]1(C)C2CCC1CC(OC(=O)C(CO)c1ccccc1)C2 (configuration not stated) | 0.07 µM
22 | CCCCC(O)(CCN1CCOCC1)c1ccc(Cl)cc1 (configuration not stated) | 44.7 µM

Row | SMILES | IC50
23 | CCN(CC)CC(=O)Nc1ccc(-c2nc3cc(NC(=O)CN(CC)CC)ccc3o2)cc1 | 79.4 µM
24 | CC(O)CNCCNCc1c(OCc2ccccc2)ccc2ccccc12 (configuration not stated) | 44.7 µM
25 | CCN(CC)CCNC(=O)c1nn(-c2ccc(C)cc2)c(=O)c2c1c1ccccc1n2C | 79.4 µM
26 | Cc1cccc2sc(N(CCCN(C)C)C(=O)c3ccco3)nc12 | 70.8 µM
27 | Cc1ccc(OCCCCCCN2CCNCC2)c(Br)c1 | 79.4 µM
28 | CN(C)CCOc1nc(-c2ccccc2)nc2c1oc1ccccc12 | 70.8 µM
29 | CC1=NN(c2ccccc2)C(=O)/C1=C/C=C/c1ccc(N(C)C)cc1 | 44.7 µM
30 | COc1ccc(-n2nc(C(=O)c3cccs3)cc(-c3nc4ccccc4[nH]3)c2=N)cc1 | 50.1 µM
31 | Cc1ccccc1Nc1nc(N)c2ccccc2n1 | 44.7 µM
32 | CCCN(CC1CC1)C(=O)CCc1nnc(CCc2c[nH]c3ccccc23)o1 | 50.1 µM
33 | Cc1ccccc1CCNCc1cc2cccc(C)c2[nH]c1=O | 50.1 µM
34 | Cc1ccc(OCCCCCCN2CCNCC2)cc1 | 79.4 µM
35 | CCN1CCN(c2nc3ccccc3nc2C(C#N)C(=O)OCc2ccccc2)CC1 (configuration not stated) | 70.8 µM
36 | Cc1ccccc1OCC(=O)NCCS(=O)(=O)N1CCN(c2ccc(F)cc2)CC1 | 44.7 µM
37 | CC[N+](CC)(CC)CCCOC(=O)C(O)(c1ccccc1)C1CCCCC1 (configuration not stated) | 0.06 µM
38 | Cc1cc(C)c2nc(C)cc(Nc3ccc(C(=O)NCCO)cc3)c2c1 | 44.7 µM
39 | Cc1cccc2sc(N(CCCN(C)C)C(=O)c3ccc(Cl)s3)nc12 | 70.8 µM
40 | CC1(C)CC(N=c2cc(-c3ccccc3)oc3ccc(Cl)cc23)CC(C)(C)N1 | 50.1 µM
41 | O=C1c2ccccc2-c2onc3c(N4CCN(CCO)CC4)cc(N4CCN(C(=O)c5ccco5)CC4)c1c23 | 79.4 µM
42 | COC(=O)c1[nH]c2ccc(Br)cc2c1NC(=O)CN1CCN(C2CCCCC2)CC1 | 44.7 µM
43 | Cc1cccc(C(=O)NNC2=C(C(=O)C(F)(F)F)CCC2)c1O | 44.7 µM
44 | CC(C)(C)NCc1cc(Br)ccc1OCc1cccs1 | 70.8 µM

Row | SMILES | IC50
45 | CN(C)CCNc1c2c(c(C#N)c3nc4ccccc4n13)CCCC2 | 79.4 µM
46 | CCC(CO)(C(=O)OC1C[N+]2(C)CCC1CC2)c1ccccc1 (configuration not stated) | 1.58 µM
47 | Cc1cc(Nc2cccc([N+](=O)[O-])c2)c2cccc(C)c2n1 | 44.7 µM
48 | Cc1nnc(SCCn2c(N3CCN(C)CC3)nc3c2c(=O)[nH]c(=O)n3C)s1 | 50.1 µM
49 | Nc1ccc(C(=O)OCc2nc3ccccc3s2)cc1 | 79.4 µM
50 | CN(C)CCNS(=O)(=O)c1ccc(N2CCN(c3ccc(F)cc3)CC2)c([N+](=O)[O-])c1 | 56.2 µM
51 | COc1cccc(Nc2nc(NCCO)c3ccccc3n2)c1 | 63.1 µM
52 | CN(C)CCCNc1nc(-c2ccccc2)nc2ccccc12 | 79.4 µM
53 | CN(C)CCCN1c2ccccc2Sc2ccc(C(F)(F)F)cc21 | 50.1 µM
54 | N#CCCN(CCN1CCCC1)S(=O)(=O)c1ccc(-c2ccc([N+](=O)[O-])cc2)cc1 | 63.1 µM
55 | N=c1c(C(=O)NCC2CCCO2)cc2c(=O)n3ccccc3nc2n1Cc1ccccc1Cl (configuration not stated) | 44.7 µM
56 | CC(C)(C)c1ccc(OCCCCCCN2CCNCC2)cc1 | 50.1 µM
57 | C[N+](C)(N)CCOC(=O)C(O)(c1ccccc1)C1CCCCC1 (configuration not stated) | 0.32 µM
58 | Cc1c(Cl)cccc1Nc1nc(NCCO)c2ccccc2n1 | 79.4 µM
59 | O=C1c2cccc3cccc(c23)C(=O)N1CC1CCN(CC(O)COCc2ccc3c(c2)OCO3)CC1 (configuration not stated) | 50.1 µM
60 | CC(Cc1ccccc1Sc1ccc(O)cc1)N(C)C (configuration not stated) | 31.6 µM
61 | CCOC(=O)c1c(CNc2ccncc2)n(C)c2cc(Br)c(O)cc12 | 44.7 µM
62 | Cc1cccc(OCc2nnc(SCc3cc(=O)n4cc(Br)ccc4n3)o2)c1 | 70.8 µM
63 | Cc1cccc(CCNCc2cc3cccc(C)c3[nH]c2=O)c1 | 50.1 µM
64 | CCOC(=O)c1ccc(NC(=O)CC2COc3ccccc3O2)cc1 (configuration not stated) | 63.1 µM
65 | COc1cc(-c2nc3ccc(C)cn3c2Nc2ccc3c(c2)OCCO3)ccc1O | 44.7 µM
66 | CCOC(=O)N1CCC(N2Cc3cccc(C(=O)Nc4ccc(CC)cc4)c3C2=O)CC1 | 44.7 µM

The next lines start with the values.

Row | IC50 | SMILES
67 | 8.91 µM | O=C(OCCN1CCCCC1)C1(c2ccccc2)CCCC1
68 | 14.1 µM | Cc1cc(C)n(-c2nc(NCCCN(C)C)c3c4c(sc3n2)COC(C)(C)C4)n1
69 | 35.5 µM | O=C(NNS(=O)(=O)c1ccc(Cl)cc1)C1CCN(Cc2ccccc2)CC1
70 | 39.8 µM | O=C1Nc2ccccc2/C1=N\N=C\C1=C(N2CCOCC2)C(=C\c2ccccc2)/CC1
71 | 25.1 µM | Cc1c(C(=O)OCCN2CCCCC2)oc2ccccc12
72 | 39.8 µM | C[n+]1ccc(/C=N/Nc2nc(Cl)c(C#N)c(Cl)c2Cl)cc1
73 | 15.8 µM | CN1CCC(OC(c2ccccc2)c2ccccc2)CC1
74 | 8.91 µM | O=C(NC(Nc1nc2ccc([N+](=O)[O-])cc2s1)(C(F)(F)F)C(F)(F)F)c1ccccc1
75 | 11.2 µM | Cc1cc(-n2cccn2)ccc1CN1CCN(CC(C)C)C(CCO)C1 (configuration not stated)
76 | 14.1 µM | CCN1C(=O)/C(=C\N2CCCCCC2)SC1=S
77 | 35.5 µM | Cc1ccc(Sc2c([N+](=O)[O-])c(C)nn2C)cc1
78 | 17.8 µM | CN(C)C(C)(C)/C=C/C(O)(c1ccccc1)c1ccccc1
79 | 35.5 µM | Cc1ccc(SC(=O)c2c([N+](=O)[O-])c(C)nn2C)cc1
80 | 8.91 µM | CC(/C=N/n1c(-c2n[nH]c3c2CCC3)n[nH]c1=S)=C\c1ccco1
81 | 11.2 µM | CC(C)C(O)(C#CCN1CCCCC1)c1ccccc1 (configuration not stated)
82 | 3.98 µM | c1ccc(Cn2c(-c3ccccc3)c[n+]3c2SCCC3)cc1
83 | 11.2 µM | CN1CCN(c2ncccc2S(=O)(=O)N2CCCCC2)CC1
84 | 39.8 µM | COCCNC(=O)c1cc2c(=O)n3cccc(C)c3nc2n(Cc2ccncc2)c1=N
85 | 14.1 µM | Cc1c(C(=O)OC(C)CCN(C)C)oc2ccccc12 (configuration not stated)
86 | 35.5 µM | COC(=O)c1ccc(CN2CCN(C3CCCC3)C(CCO)C2)cc1 (configuration not stated)
87 | 28.2 µM | CCC(C)N(CCNC(=O)CC1Oc2ccccc2NC1=O)C1CCCCC1 (configuration not stated)
88 | 15.8 µM | CN1CCN(C2=Nc3cc(Cl)ccc3Nc3ccccc32)CC1
89 | 17.8 µM | Cc1ccc(C(=O)OCCc2sc[n+](Cc3ccccc3)c2C)cc1
90 | 7.94 µM | CCN(CC)CCC/C(=N\O)C(O)(c1ccccc1)c1ccccc1
91 | 39.8 µM | COCCCNC(=S)N1CCCN(c2nc3cc(C)ccc3cc2C#N)CC1
92 | 39.8 µM | COc1cc(/C=N/Nc2nc(N3CCCC3)nc(N3CCCC3)n2)ccc1OCc1ccccc1F

Row | IC50 | SMILES
93 | 1.58 µM | CC(=O)OCC[N+](C)(C)C
94 | 1.41 µM | O=C(NNS(=O)(=O)c1ccc2ccccc2c1)C1CCN(Cc2ccccc2)CC1
95 | 17.8 µM | Cc1ccc(S(=O)(=O)n2c(N)nc3ccccc32)cc1
96 | 12.6 µM | CN(CC#CC(O)(c1ccccc1)c1ccccc1)C(C)(C)C
97 | 39.8 µM | N#Cc1c(-n2cccc2/C=N/O)sc2c1CCCC2
98 | 28.2 µM | CSCc1cc(N(C)c2ccccc2)nc(-c2ccccn2)n1
99 | 25.1 µM | O=[N+]([O-])c1ccc(N=Nc2c(Cl)cc(O)cc2Cl)cc1
100 | 15.8 µM | Oc1ccc(CN2CCc3ccccc3C2)c2cccnc12
101 | 31.6 µM | C/C(=N/OC(=O)c1c(-c2c(Cl)cccc2Cl)noc1C)c1cnccn1
102 | 28.2 µM | Cc1cc(C)nc(/N=C(\N)N(Cc2ccccc2)Cc2ccccc2)n1
103 | 31.6 µM | CCOC(=O)c1[nH]c2ccc(F)cc2c1NC(=O)CN1CCN(C/C=C/c2ccccc2)CC1
104 | 0.05 µM | CN1CCCN=C1COC(=O)C(O)(c1ccccc1)C1CCCCC1 (configuration not stated)
105 | 11.2 µM | CCN(CC)CCCOC(=O)C1(c2ccccc2)CCCC1
106 | 15.8 µM | O=C(OCCN1CCCC1)C1(c2ccccc2)CCCC1
107 | 0.04 µM | C[N+]12CCC(CC1)C(OC(=O)C(O)(c1ccccc1)c1ccccc1)C2 (configuration not stated)
108 | 4.47 µM | CC[N+](C)(CC)CCC(c1ccccc1)C1CCCCC1 (configuration not stated)
109 | 2.24 µM | C[N+]1(CC#CC(O)(c2ccccc2)c2ccccc2)CCCC1
110 | 8.91 µM | CCN(CC)CC#CC(O)(c1ccccc1)c1ccccc1
111 | 31.6 µM | COC(=O)c1ccc(Nc2cc(C)nc3ccc(C)cc23)cc1
112 | 2.82 µM | Cc1ccc(S(=O)(=O)NNC(=O)C2CCN(Cc3ccccc3)CC2)cc1
113 | 12.6 µM | CN(C)CCOC1c2ccccc2CSc2ccccc21 (configuration not stated)
114 | 12.6 µM | CCCCCC[N+](C)(C)CC/C=C1/c2ccccc2Sc2ccc(Cl)cc21
115 | 31.6 µM | Fc1ccc2[nH]c3c(c2c1)CN(C(=S)NCc1ccccc1)CC3
116 | 39.8 µM | CCCCCCCCCCn1ccc(=N)cc1
117 | 39.8 µM | CCCc1ncc(C(O)(c2ccccc2)c2ccccc2)n1C
